# From ChEMBL document CHEMBL1140260, “Synthesis and SAR of diazepine and thiazepine TACE and MMP inhibitors” (Bioorg Med Chem Lett, 2005)
# Key:
# Collagenase 3 = Collagenase 3 (Homo sapiens, UniProt P45452)
# Description: Inhibitory concentration against Matrix metalloprotease-13 at 1 uM
# Interstitial collagenase = target: T1, Interstitial collagenase (Homo sapiens, UniProt P03956); assay: (§1) Inhibitory concentration against matrix metalloprotease-1 at 1 uM
# T1 sequence (P03956 whole entry): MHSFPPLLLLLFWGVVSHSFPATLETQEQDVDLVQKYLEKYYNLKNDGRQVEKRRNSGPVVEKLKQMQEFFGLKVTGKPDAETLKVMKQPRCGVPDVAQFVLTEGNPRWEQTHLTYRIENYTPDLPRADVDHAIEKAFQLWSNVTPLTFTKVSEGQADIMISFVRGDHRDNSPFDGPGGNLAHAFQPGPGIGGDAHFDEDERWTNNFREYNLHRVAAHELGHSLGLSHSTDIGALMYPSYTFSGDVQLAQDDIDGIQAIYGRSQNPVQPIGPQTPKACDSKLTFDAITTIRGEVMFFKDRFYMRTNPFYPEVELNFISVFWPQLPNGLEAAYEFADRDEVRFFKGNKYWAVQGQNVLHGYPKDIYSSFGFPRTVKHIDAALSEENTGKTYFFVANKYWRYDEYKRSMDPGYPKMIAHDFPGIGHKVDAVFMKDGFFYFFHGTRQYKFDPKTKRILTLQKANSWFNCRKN
# [1] = target: Disintegrin and metalloproteinase domain-containing protein 17 (Homo sapiens, UniProt P78536); assay: Inhibitory concentration against TNF-alpha converting enzyme at 1 uM
# THP-1 [2] = assay: Percent inhibition against LPS stimulated THP-1 cellular assay at 1 uM; type: functional; conditions: Homo sapiens
# THP-1 [3] = assay: Percent inhibition against LPS stimulated THP-1 cellular assay at 3 uM; type: functional; conditions: Homo sapiens
# Mus musculus [4] = assay: Half life of compound in mice after i.v. administration at 5 mg/kg; type: functional, organism-based; set-up: dose 5 mg/kg
# [5] = Volume of distribution of compound in mice; type: ADME, organism-based; conditions: mouse, in vivo
# Mus musculus [6] = assay: Percent reduction induced by compound in the mouse collagen induced arthritis model after 35 days of peroral dosing at 20 mpk, twice daily; type: functional
# Mus musculus [7] = assay: Oral bioavailability of compound in mice; type: functional, organism-based
# Mus musculus [8] = assay: Half life of compound in mice after p.o. administration at 50 mg/kg
# Mus musculus [9] = species: Mus musculus; assay: Plasma clearance of compound in mice plasma; type: functional, organism-based
# Mus musculus [10] = assay: Percent inhibition ofTNF-alpha release 1 hr after oral dosing at 50 mpk; type: functional
# Mus musculus [11] = assay: Half life of compound in mice after i.p. administration at 10 mg/kg; type: functional, organism-based; set-up: dose 10 mg/kg
# Mus musculus [12] = assay: Percent inhibition ofTNF-alpha release 6 hr after oral dosing at 50 mpk; type: functional
# Mus musculus [13] = assay: Percent inhibition ofTNF-alpha release 1 hr after oral dosing at 25 mpk; type: functional
# [14] = target: T2, Interstitial collagenase (Homo sapiens) (UniProt P03956); assay: Percent inhibition against matrix metalloprotease-1 at 1 uM
# T2 sequence (whole entry): T1 sequence (P03956 whole entry)
# [15] = target: T2, Interstitial collagenase (Homo sapiens); assay: as §1
# THP-1 [16] = assay: Percent inhibition against LPS stimulated THP-1 cell assay at 3 uM; type: functional; conditions: Homo sapiens
# Chain of Disintegrin and metalloproteinase domain-containing protein 17 (P78536 whole entry, the tested form may be a part): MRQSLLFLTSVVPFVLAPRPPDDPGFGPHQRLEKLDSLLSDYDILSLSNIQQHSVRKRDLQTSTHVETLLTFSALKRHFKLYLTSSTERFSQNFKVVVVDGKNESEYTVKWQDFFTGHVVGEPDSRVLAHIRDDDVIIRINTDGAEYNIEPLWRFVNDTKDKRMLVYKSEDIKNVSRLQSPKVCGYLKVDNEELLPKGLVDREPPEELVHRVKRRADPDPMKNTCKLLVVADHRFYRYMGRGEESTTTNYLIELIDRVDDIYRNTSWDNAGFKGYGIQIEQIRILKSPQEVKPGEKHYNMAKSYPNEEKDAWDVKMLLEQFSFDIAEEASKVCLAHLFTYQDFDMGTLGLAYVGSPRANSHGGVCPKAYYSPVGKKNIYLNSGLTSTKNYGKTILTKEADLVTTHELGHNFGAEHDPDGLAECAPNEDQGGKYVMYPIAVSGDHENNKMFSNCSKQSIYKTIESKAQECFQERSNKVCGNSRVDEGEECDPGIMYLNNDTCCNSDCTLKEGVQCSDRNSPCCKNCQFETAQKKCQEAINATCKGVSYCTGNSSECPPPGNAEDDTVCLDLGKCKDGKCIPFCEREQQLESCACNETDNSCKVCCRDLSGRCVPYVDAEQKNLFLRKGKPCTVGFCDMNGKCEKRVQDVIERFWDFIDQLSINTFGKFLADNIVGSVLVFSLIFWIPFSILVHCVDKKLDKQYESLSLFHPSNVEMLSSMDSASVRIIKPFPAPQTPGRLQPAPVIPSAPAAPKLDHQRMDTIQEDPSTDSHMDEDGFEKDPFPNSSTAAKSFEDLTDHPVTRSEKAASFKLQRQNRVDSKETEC
SMILES,IC50 (Collagenase 3),IC50 (Interstitial collagenase),IC50 [1],inhibition at 3 µM (THP-1 [3]),inhibition in vivo at 50 mg/kg (Mus musculus [10]),further results
CC#CCOc1ccc(S(=O)(=O)N2CCN(C(=O)CC)CCC2C(=O)NO)cc1 (stereo not drawn),20 nM,207 nM,19 nM,,,inhibition at 1 µM (THP-1 [2]): 63%
CC#CCOc1ccc(S(=O)(=O)N2CCN(C(=O)COC)CCC2C(=O)NO)cc1 (stereo not drawn),31 nM,277 nM,15 nM,79%,,
CC#CCOc1ccc(S(=O)(=O)N2CCNCCC2C(=O)NO)cc1 (stereo not drawn),32 nM,,,,97%,T1/2 (Mus musculus [4]): 1.43 h; Vd [5]: 2.49 L/kg; Reduction (Mus musculus [6]): 56%; bioavailability (Mus musculus [7]): 18%; T1/2 (Mus musculus [8]): 0.86 h; CL (mL.min-1.kg-1) (Mus musculus [9]): 64.3; T1/2 (Mus musculus [11]): 2.64 h; inhibition in vivo at 50 mg/kg (Mus musculus [12]): 62%
CC#CCOc1ccc(S(=O)(=O)N2CCCN(S(=O)(=O)c3ccccc3)CC2C(=O)NO)cc1 (stereo not drawn),88 nM,,68 nM,62%,,inhibition in vivo at 25 mg/kg (Mus musculus [13]): 46%; inhibition [14]: 39%
CC#CCOc1ccc(S(=O)(=O)N2CCCN(C(C)=O)CC2C(=O)NO)cc1 (stereo not drawn),305 nM,,4 nM,74%,,inhibition in vivo at 25 mg/kg (Mus musculus [13]): 10%
CC#CCOc1ccc(S(=O)(=O)N2CCN(C(=O)OC(C)(C)C)CCC2C(=O)NO)cc1 (stereo not drawn),,,,,88%,inhibition in vivo at 50 mg/kg (Mus musculus [12]): 43%
CC#CCOc1ccc(S(=O)(=O)N2CCCN(S(=O)(=O)CCC)CC2C(=O)NO)cc1 (stereo not drawn),140 nM,1140 nM,30 nM,74%,,inhibition in vivo at 25 mg/kg (Mus musculus [13]): 0%
CC#CCOc1ccc(S(=O)(=O)N2CCN(C)CCC2C(=O)NO)cc1 (stereo not drawn),,,,,32%,inhibition in vivo at 50 mg/kg (Mus musculus [12]): 39%
CC#CCOc1ccc(S(=O)(=O)N2CCCS(=O)(=O)CC2C(=O)NO)cc1 (stereo not drawn),311 nM,334 nM,28 nM,,77%,
CC#CCOc1ccc(S(=O)(=O)N2CCCN(Cc3ccccc3)CC2C(=O)NO)cc1 (stereo not drawn),52 nM,212 nM,61 nM,41%,,
CC#CCOc1ccc(S(=O)(=O)N2CCCN(C(=O)CCCN(C)C)CC2C(=O)NO)cc1 (stereo not drawn),395 nM,,75 nM,33%,,inhibition [14]: 19%
CC#CCOc1ccc(S(=O)(=O)N2CCSCCC2C(=O)NO)cc1 (stereo not drawn),11 nM,171 nM,,,70%,inhibition in vivo at 50 mg/kg (Mus musculus [12]): 41%
CC#CCOc1ccc(S(=O)(=O)N2CCCSCC2C(=O)NO)cc1 (stereo not drawn),36 nM,408 nM,20 nM,80%,24%,
CC#CCOc1ccc(S(=O)(=O)N2CCCN(C)CC2C(=O)NO)cc1 (stereo not drawn),180 nM,,24 nM,42%,,inhibition [15]: 36%
CC#CCOc1ccc(S(=O)(=O)N2CCCN(S(C)(=O)=O)CC2C(=O)NO)cc1 (stereo not drawn),128 nM,,5 nM,71%,,inhibition in vivo at 25 mg/kg (Mus musculus [13]): 35%; inhibition [14]: 40%
CC#CCOc1ccc(S(=O)(=O)N2CCN(C(=O)C(C)C)CCC2C(=O)NO)cc1 (stereo not drawn),9 nM,142 nM,23 nM,95%,,
CC#CCOc1ccc(S(=O)(=O)N2CCCNCC2C(=O)NO)cc1 (stereo not drawn),225 nM,576 nM,11 nM,43%,,inhibition in vivo at 25 mg/kg (Mus musculus [13]): 4%
CC#CCOc1ccc(S(=O)(=O)N2CCN(CC)CCC2C(=O)NO)cc1 (stereo not drawn),17 nM,285 nM,37 nM,,,inhibition at 1 µM (THP-1 [2]): 57%
CC#CCOc1ccc(S(=O)(=O)N2CCCN(C(=O)OC(C)(C)C)CC2C(=O)NO)cc1 (stereo not drawn),363 nM,,35 nM,,,inhibition at 3 µM (THP-1 [16]): 13%; inhibition [14]: 26%
CC#CCOc1ccc(S(=O)(=O)N2CCN(Cc3ccccc3)CCC2C(=O)NO)cc1 (stereo not drawn),,,,,17%,inhibition in vivo at 50 mg/kg (Mus musculus [12]): 0%
CC#CCOc1ccc(S(=O)(=O)N2CCCN(C(=O)CN)CC2C(=O)NO)cc1 (stereo not drawn),1060 nM,3030 nM,12 nM,62%,,
CC#CCOc1ccc(S(=O)(=O)N2CCS(=O)(=O)CCC2C(=O)NO)cc1 (stereo not drawn),8 nM,114 nM,19 nM,92%,94%,
CC#CCOc1ccc(S(=O)(=O)N2CCN(C(=O)c3ccccc3)CCC2C(=O)NO)cc1 (stereo not drawn),,,,,35%,inhibition in vivo at 50 mg/kg (Mus musculus [12]): 0%
CC#CCOc1ccc(S(=O)(=O)N2CCCN(C(=O)CNC(=O)OC(C)(C)C)CC2C(=O)NO)cc1 (stereo not drawn),446 nM,4580 nM,7 nM,71%,,inhibition in vivo at 25 mg/kg (Mus musculus [13]): 68%
CC#CCOc1ccc(S(=O)(=O)N2CCCN(C(=O)NCCCCCC)CC2C(=O)NO)cc1 (stereo not drawn),307 nM,,14 nM,36%,,inhibition [14]: 34%
CC#CCOc1ccc(S(=O)(=O)N2CCCN(C(=O)c3cccs3)CC2C(=O)NO)cc1 (stereo not drawn),142 nM,,10 nM,41%,,
